Patent US20120093735A1, “COMPLEX COMPOUND AND MRI PROBE MADE OF SAME” (priority 2005, published 2012)

Experiments:
Type in all cases: physicochemical
[1] = Relaxivity R1 of KMR-K001 in the presence of zinc ion; conditions: 0.05M Tris/HCl pH 7.4, 0.47 T, 40° C.; gadolinium ion liberated by ligand exchange
[2] = Relaxivity R1 of KMR-K001 depending on abundance of ions; conditions: KCl vs CaCl2, MgCl2, FeCl3; 0.05M Tris/HCl pH 7.4, 0.47 T, 40° C.
Procedure: Solutions of KMR-K001 (1.0 mM) and KCl (0, 0.01, 0.1, 0.3, 0.6, 0.9, 1.2, 1.5, 1.8, 2.4, 3.0, 10, 30. 100 mM) in 0.05M Tris/HCl buffer, pH 7.4, were prepared in an amount of 2 mL, respectively. Each solution was measured for the longitudinal relaxation time T1 three times using NMS 120 Minispec NMR ANALYZER (0.47 T, 40° C., IR pulse). Then each solution was sequentially diluted to attain KMR-K001 concentrations of 0.9 mM and 0.8 mM, respectively, and the longitudinal relaxation time T1 was measured therefor. By taking [KMR-K001] along the abscissa and taking 1/T1 along the ordinate, relaxivity R1 was determined from the slope. Measurements of the longitudinal relaxation time were carried out in the same manner using CaCl2, MgCl2 or FeCl3.

[3] = Relaxivity R1 of KMR-Ca001 in the presence of iron ion; conditions: 0.05M Tris/HCl pH 7.4, 0.47 T, 40° C.; iron ion per se has relaxing capability
Procedure: (§1) Solutions of KMR-Ca001 (0.6 mM) and CaCl2 (0, 0.01, 0.1, 0.2, 0.3, 0.4, 0.5, 0.6, 0.7, 0.8, 1.0, 1.2, 3.0, 10, 30, 100mM) in 0.05M Tris/HCl buffer, pH 7.4, were prepared in an amount of 2 mL, respectively. Each solution was measured for the longitudinal relaxation time T1 three times using NMS 120 Minispec NMR ANALYZER (0.47 T, 40° C., IR pulse). Then each solution was sequentially diluted to attain […] concentrations of 0.45 mM and 0.35 mM, respectively, and the longitudinal relaxation time T1 was measured therefor in the same manner. By taking [KMR-Ca001] along the abscissa and taking 1/T1 along the ordinate, relaxivity R1 was determined from the slope. Measurements of the longitudinal relaxation time were carried out in the same manner using NaCl, MgCl2 or FeCl3.

[4] = T1-weighted images of KMR-Ca001 solutions (1.5T MR scanner); conditions: 0.05M Tris/HCl pH 7.4, 1.5T
Procedure: Water, solutions containing KMR-Ca001 alone at concentrations of 0.1, 0.3, 0.6, 1.0 and 3.0 mM, respectively, and solutions containing 0.3 mM KMR-Ca001 and CaCl2 at concentrations of 0.5, 0.6, 0.8, 1.0, 10.0, 20.0, 50.0, 80.0 mM, respectively, in 0.05M Tris/HCl buffer, pH 7.4, were prepared, and placed in glass tubes, respectively. These glass tubes were stood on agar contained in a Tupperware, and T1-weighted images were obtained by T1-weighted GRE using a 1.5T MR scanner (Signa Horzon LX, produced by GE Yokogawa Medical Systems).
As a result, as KMR-Ca001 increased, the T1-weighted images became whiter, so that it was confirmed that KMR-Ca001 functioned and effective as an MRI contrast agent. The T1-weighted images of the solutions containing 0.3 mM KMR-Ca001 to which calcium ion was added, as the calcium ion increases, coordination of water to gadolinium ion was more inhibited, so that T1-weighted image became darker. By this, it was confirmed that KMR-Ca001 is an MRI contrast agent which responds to calcium ion concentration.

[5] = Relaxivity R1 of KMR-Ca001 depending on abundance of ions; conditions: CaCl2 vs NaCl, MgCl2, FeCl3; 0.05M Tris/HCl pH 7.4, 0.47 T, 40° C.
Procedure: as §1

| Substance | change of relaxivity in the presence of zinc ion [1] | ion selectivity of relaxivity R1 response [2] | change of relaxivity in the presence of iron ion [3] | T1-weighted image change with increasing calcium ion ([4]; 0.3 mM KMR-Ca001 with CaCl2 0.5-80.0 mM) | T1-weighted image change with increasing probe concentration ([4]; KMR-Ca001 alone 0.1-3.0 mM) | ion selectivity of relaxivity R1 response [5] |
| --- | --- | --- | --- | --- | --- | --- |
| [bis-(2-{[(2-carboxy-(benzo-15-crown-5)-ethylcarbamoyl)-methyl]-carboxymethyl-amino}-ethyl)-amino]-acetic acid gadolinium complex [KMR-K001] | the relaxivity is sharply increased | selectively responds to potassium ion | – | – | – | – |
| {bis-[2-({[3-(bis-carboxymethyl-amino)-4-methoxy-phenylcarbamoyl]-methyl}-carboxymethyl-amino)-ethyl]-amino}-acetic acid gadolinium complex [KMR-Ca001] | – | – | the relaxivity is sharply increased | became darker | became whiter | selectively responds to calcium ion |
